# Literature values as cited in patent US20240285636A1, “PHARMACEUTICAL COMPOSITION AND USE OF THE PHARMACEUTICAL COMPOSITION” (LIBBS FARMACÊUTICA LTDA, priority 2021, published 2024).
# Details: class IV = low solubility and low permeability
structure (smiles),measurement,value
"CCCSc1nc(N[C@@H]2C[C@H]2c2ccc(F)c(F)c2)c2nnn([C@@H]3C[C@H](OCCO)[C@@H](O)[C@H]3O)c2n1 (relative stereo) [Ticagrelor, {1S-[1α,2α,3β(1S*,2R*),5β}-3-(7-{[2-(3,4-difluorophenyl)-cyclopropyl]amino}-5-(propylthio)-3H-1,2,3-triazol[4,5-d]pyrimidin-3-yl)-5-(2-hydroxyethoxy)cyclopentane-1,2-diol]",Biopharmaceutical Classification System class,class IV
